{
  "source": "patent US20220378739A1",
  "about": "“NATURAL KILLER CELL IMMUNOTHERAPY FOR THE TREATMENT OF GLIOBLASTOMA AND OTHER CANCERS” (BOARD OF REGENTS, THE UNIVERSITY OF TEXAS SYSTEM, priority 2019, published 2022)",
  "key": {"[1]": {"system": "TGF-β1 Smad⅔ signaling pathway in NK cells", "experiment": "Phospho-Smad⅔ assay in NK cells co-cultured with GSCs", "assay_type": "cell-based, human", "details": "healthy control NK cells + GSCs; inhibitor 10 μM", "description": "(§1) GSCs and purified NK cells were co-cultured for 48 hours in the presence of anti-TGFβ 123 (5 μg/ml) (R&D), HLA-ABC blocking antibody (clone W 6/32, Biolegend), CD44 blocking antibody (clone IM7, Biolegend), ILT-2 (CD85J) blocking antibody (clone HP-F1, ThermoFisher), CD155 blocking antibody (clone D171, GenTex), CD112 blocking antibody (clone TX31, Biolegend), 10 μM LY2109761, 10 μM galunisertib (LY2157299), 10 μM Cilengitide (Cayman Chemical) or 1 μM MMP-2/MMP-9 inhibitor I (Millipore). Cytotoxicity assays were then performed as described above.\nNK cells were stained with Live/dead-aqua and CD56 ECD (Beckman Coulter) for 20 min in the dark at RT, washed with PBS fixed for 10 min in the dark. After one wash, the cells were permeabilized (Beckman Coulter kit) and stained with p-(5465/5467)-Smad2/p-(5423/5425)/Smad3-Alexa 647 mAb Phosflow antibody (BD Biosciences) for 30 minutes at room temperature. Cells incubated with 10 ng/ml recombinant TGF-β for 45 minutes in 37° C. were used as positive control."}, "[2]": {"system": "K562 targets", "assay_type": "cell-based, human", "details": "NK cells alone, inhibitor 10 μM, 48 hours", "description": "NK cells were co-cultured for 5 hours with K562 or GSCs target cells at an optimized effector:target ratio of 5:1 together with CD107a PE-CF594 (BD Biosciences), monensin (BD GolgiStopTM) and BFA (Brefeldin A, Sigma Aldrich). NK cells were incubated without targets as the negative control and stimulated with PMA (50 ng/mL) and ionomycin ([…], Sigma Aldrich) as positive control. Cells were collected, washed and stained with surface antibodies (mentioned above), fixed/permeabilized (BD Biosciences) and stained with IFN-7 v450 and TNF-α Alexa700 (BD Biosciences) antibodies.\nNK cell cytotoxicity was assessed using chromium (siCr) release assay. Briefly, K562 or GSCs target cells were labeled with siCr (PerkinElmer Life Sciences, Boston, Mass.) at 50 μCi/5×10^5 cells for 2 hours. ^51Cr-labeled K562/GSC targets (5×105) were incubated for 4 h with serially diluted magnetically isolated NK cells in triplicate. Supernatants were then harvested and analysed for ^51Cr content.\nFor studies of NK cell suppression by GSCs and human astrocytes, magnetically selected healthy NK cells were cultured in Serum-free Stem Cell Growth Medium (SCGM; CellGro/CellGenix) supplemented with 5% glutamine, 5 μM HEPES (both from GIBCO/Invitrogen), and 10% FCS (Biosera) in 96-well flat-bottomed plates (Nunc) at 100,000/100D11. NK cells were co-cultured either alone (positive control) or with GSCs or astrocytes at a 1:1 ratio for 48 hours at 37° C. before performing functional assays to assess NK cells cytotoxicity.\nas §1"}, "[3]": {"system": "patient-derived GSCs", "experiment": "Xenogeneic (PDX) NSG mouse model of GBM", "assay_type": "in vivo", "description": "To test this prediction, a PDX mouse model of patient-derived GSC was used, in which, ffLuc+ patient-derived GSCs (0.5×10^6) were stereotactically implanted on day 0 through a guide-screw into the right forebrain of NOD/SCID/IL2Rγc null mice (n=4-5 per group). After 7 days, the mice were treated intratumorally with 2.0×10^6 human NK cells every 7 days for 11 weeks (FIG. 5A) with either galunisertib to block the TGF-β signaling or cilengitide to block the integrin pathway. Galunisertib was administered five times a week by oral gavage and cilengitide three times a week by intraperitoneal injection. Animals implanted with tumor that were either untreated or received NK cells alone, galunisertib alone or cilengitide alone served as controls.\nTo assess the anti-tumor effect of NK cells against GSCs in vivo, a NOD/SCID IL-2R7null (NSG) human xenograft model (Jackson Laboratories, Bar Harbor, Me.) was used. Intracranial implantation of GSCs into male mice was performed as previously described^55. A total of 60 mice were used. 0.5×10^5 GSCs were implanted intracranially into the right frontal lobe of 5 week old NSG mice using a guide-screw system implanted within the skull. To increase uniformity of xenograft uptake and growth, cells were injected into 10 animals simultaneously using a multiport Microinfusion Syringe Pump (Harvard Apparatus, Holliston, Mass.). Animals were anesthetized with xylazine/ketamine during the procedure. For in vivo bioluminescent imaging, GSCs were engineered to express luciferase by lentivirus transduction. Kinetics of tumor growth was monitored using weekly bioluminescence imaging (BLI; Xenogen-IVIS 200 Imaging system; Caliper, Waltham, Mass.). Signal quantitation in photons/second (p/s) was performed by determining the photon flux rate within standardized regions of interest (ROI) using Living Image software (Caliper). […] expanded donor peripheral blood NK cells^56 were injected intracranially via the guide-screw at day 7 post tumor implantation, and then every 7 days for 11 weeks. Mice were treated with either cilengitide or galunisertib (both from MCE Med Chem Express, Monmouth Junction, NJ) in the presence or absence of intracranial NK cell injection. Cilengitide was administered intraperitoneally 3 times a week starting at day 1 (250 μg/100 μl PBS) while galunisertib was administered orally (75 mg/kg) by gavage 5 days a week starting at day 1 (see FIG. 5A). […]\nBrain tissue specimens from untreated control mice, mice treated with either NK cells alone, cilengitide alone, galunisertib alone or with combination therapy of NK+ cilengitide or NK+ galunisertib were collected. […] Sections lacking tumor were also evaluated for evidence of meningoencephalitis using a Leica DM 2500 light microscope by a board-certified veterinary pathologist. […]"}},
  "data": [
    {"compound": "Cc1cccc(-c2nn3c(c2-c2ccnc4ccc(C(N)=O)cc24)CCC3)n1", "note": "[galunisertib]", "values": [
      {"measurement": "p-Smad⅔ expression (MFI) in NK cells co-cultured with GSCs", "setting": "[1]", "result": "prevented GSCs from activating the TGF-β1 Smad⅔ signaling pathway in NK cells"},
      {"measurement": "NK cell function (CD107a, IFN-γ, TNF-α response to K562), NK cells without GSCs", "setting": "[2]", "result": "neither inhibitor affected NK cell function"},
      {"measurement": "tumor bioluminescence (BLI), first experiment", "setting": "[3]; NK cells intratumorally every 7 days for 11 weeks, galunisertib oral 5 times a week, cilengitide i.p. three times a week", "result": "tumor bioluminescence rapidly increased"},
      {"measurement": "NK-mediated GBM killing / efficacy in PDX model of GBM (summary statements)", "setting": "[3]; mouse, in vivo", "result": "enhances NK-mediated GBM killing in vivo"}
    ]}
  ]
}
